Conditions: Liquid, vibrating tube

CCOCCOCCO [3,6-dioxa-1-octanol]
mass density [kg/m3]
Conditions	100 kPa	1000 kPa	2500 kPa	5000 kPa	7500 kPa	10000 kPa	15000 kPa	20000 kPa	25000 kPa
283.15 K	997.7	998.2	999.1	1000.6	1002	1003.4	1006.1	1008.8	1011.3
293.15 K	988.4	988.9	989.8	991.3	992.8	994.3	997.2	999.9	1002.6
303.15 K	979.5	980.1	981.1	982.6	984.2	985.8	988.8	991.7	994.6
313.15 K	970.6	971.2	972.2	973.9	975.5	977.1	980.3	983.4	986.3
323.15 K	961.5	962.1	963.2	965	966.8	968.5	971.9	975.1	978.2
333.15 K	952.4	953.1	954.3	956.1	958	959.7	963.2	966.5	969.8
343.15 K	943.4	944.1	945.3	947.3	949.2	951.1	954.8	958.3	961.6
353.15 K	934.1	934.9	936.1	938.2	940.2	942.2	946	949.7	953.2

From the NIST ThermoML archive (doi:10.1021/je034218n)
